From patent US20160242416A1, “FUNGICIDAL ISOXAZOLINE CARBINOLS” (E I DU PONT DE NEMOURS AND COMPANY, priority 2015, published 2016)

Key:
[1] = system: Stagonospora nodorum; test: Test D: wheat glume blotch, preventive spray on wheat seedlings; conditions: 100 = 100% disease control; for Test D rating (% disease control): wheat glume blotch, 0 = no control; for Test D disease control rating: 0 = no control relative to controls
[2] = system: Zymoseptoria tritici; test: Test E: wheat leaf blotch, preventive spray on wheat seedlings; conditions: 100 = 100% disease control; for Test E rating (% disease control): wheat leaf blotch, 0 = no control; for Test E disease control rating: 0 = no control relative to controls
[3] = system: Botrytis cinerea; test: Test B: gray mold, preventive spray on tomato seedlings; conditions: 100 = 100% disease control; for Test B rating (% disease control): gray mold on tomato, 0 = no control; for Test B disease control rating: 0 = no control relative to controls
[4] = system: Phytophthora infestans; type: in vivo; conditions: 100 = 100% disease control; for Test C rating (% disease control): 50 ppm (asterisk), tomato late blight, 0 = no control
[5] = system: Puccinia recondita f sp. tritici; test: Test F: wheat leaf rust, preventive spray on wheat seedlings; conditions: 100 = 100% disease control; for Test F rating (% disease control): wheat leaf rust, 0 = no control; for Test F disease control rating: 0 = no control relative to controls
[6] = system: Erysiphe graminis f sp. tritici; test: Test G: wheat powdery mildew, preventive spray on wheat seedlings; conditions: 100 = 100% disease control; for Test G rating (% disease control): wheat powdery mildew, 0 = no control; for Test G disease control rating: 0 = no control relative to controls
Source text: General protocol for preparing test solutions for Tests A-G: the test compounds were first dissolved in acetone in an amount equal to 3% of the final volume and then suspended at the desired concentration (in ppm) in acetone and purified water (50/50 mix by volume) containing 250 ppm of the surfactant PEG400 (polyhydric alcohol esters). The resulting test suspensions were then used in Tests A-G. Compounds were sprayed at a concentration of 50 ppm (*) or 10 ppm to the point of run-off on the test plants, the equivalent of a rate of 200 g/ha or 40 g/ha, respectively.
The test solution was sprayed to the point of run-off on wheat seedlings. The following day the seedlings were inoculated with a spore dust of Erysiphe graminis f sp. tritici, (the causal agent of wheat powdery mildew) and incubated in a growth chamber at 20° C. for 8 days, after which time visual disease ratings were made.
Compounds with an asterisks (*) were applied at a concentration of 50 ppm, otherwise test solutions were applied at 10 ppm.

[7] = 50 ppm test solution (asterisked compounds)

SMILES	Test D rating (% disease control) ([1]; 50 ppm (asterisk)) [%]	Test E rating (% disease control) ([2]; 50 ppm (asterisk)) [%]	Test B rating (% disease control) ([3]; 50 ppm (asterisk)) [%]	Test C rating (% disease control) [4] [%]	Test F rating (% disease control) ([5]; 50 ppm (asterisk)) [%]	Test G rating (% disease control) ([6]; 50 ppm (asterisk)) [%]	Test D rating (% disease control) ([1]; 10 ppm) [%]	Test E rating (% disease control) ([2]; 10 ppm) [%]	Test B rating (% disease control) ([3]; 10 ppm) [%]	Test F rating (% disease control) ([5]; 10 ppm) [%]	Test G rating (% disease control) ([6]; 10 ppm) [%]	other results
OC(Cn1cncn1)(C1=NOC(c2ccccc2F)C1)c1ccccc1 (mixture of isomers) [Compound 118]	100	0	68	0	89	99						
OC(Cn1cncn1)(C1=NOC(c2ccccc2)(C(F)(F)F)C1)c1ccc(Cl)cc1 (single isomer, unassigned) [Compound 214]												Test D disease control rating [1, 7]: 0%; Test E disease control rating [2, 7]: 1%; Test B disease control rating [3, 7]: 0%; Test C disease control rating ([4]; 50 ppm test solution (asterisked compounds), 0 = no control relative to controls): 0%; Test F disease control rating [5, 7]: 25%; Test G disease control rating [6, 7]: 99%
OC(Cn1cncn1)(C1=NOC(c2ccc(Cl)cc2)C1)c1ccc(F)cc1F (single isomer, unassigned) [Compound 130]	100	11	14	0	100	100						
CC(C)(C)C(O)(Cn1cncn1)C1=NOC(c2ccc(Cl)cc2)C1 (single isomer, unassigned) [Compound 133]	100	88	95	0	100	99						
OC(Cn1cncn1)(C1=NOC(c2ccc(Cl)cc2)C1)c1ccc(F)cc1F (single isomer, unassigned) [Compound 131]	100	5	0	0	100	100						
OC(Cn1cncn1)(C1=NOC(Cc2ccccc2)C1)c1ccc(Cl)cc1 (single isomer, unassigned) [Compound 136]	100	83	92	0	100	100						
CC(C)(C)C1CC(C(O)(Cn2cncn2)c2ccccc2)=NO1 (single isomer, unassigned) [Compound 124]	0	6	0	0	28	96						
OC(Cn1cncn1)(C1=NOC(c2c(F)cccc2F)C1)c1ccccc1 (mixture of isomers) [Compound 1]	99	18	0	0	99	100						
CC(C)(C)C(O)(Cn1cncn1)C1=NOC(c2ccc(Cl)cc2)C1 (single isomer, unassigned) [Compound 132]	100	81	99	0	100	100						
OC(Cn1cncn1)(C1=NOC(c2ccc(F)cc2)C1)c1ccccc1 (mixture of isomers) [Compound 116]	100	0	0	0	80	99						
OC(Cn1cncn1)(C1=NOC(c2ccc(F)cc2)C1)c1ccc(F)cc1 (single isomer, unassigned) [Compound 119]		0	0	0	41	100						
CC(C)(C)CC1CC(C(O)(Cn2cncn2)C(C)(C)C)=NO1 (single isomer, unassigned) [Compound 78]							0	0	0	0	0	
OC(Cn1cncn1)(C1=NOC(c2ccc(Cl)cc2)C1)c1ccccc1Cl (single isomer, unassigned) [Compound 151]							0	76	0	84	90	
CC(C)(C)C(O)(Cn1cncn1)C1=NOC(Cc2ccc(Cl)c(Cl)c2)C1 (single isomer, unassigned) [Compound 23]							97	89	0	100	100	
OC(Cn1cncn1)(C1=NOC(c2ccc(Cl)cc2)C1)c1ccccc1Cl (single isomer, unassigned) [Compound 150]							100	42	0	100	99	
OC(Cn1cncn1)(C1=NOC(COc2ccccc2)C1)c1ccc(Cl)cc1 (single isomer, unassigned) [Compound 144]							99	17	0	100	99	
Cn1nc(C(F)(F)F)cc1OCC1CC(C(O)(Cn2cncn2)C(C)(C)C)=NO1 (single isomer, unassigned) [Compound 56]							20	0	0	97	94	
CC(C)(C)C(O)(Cn1cncn1)C1=NOC(COc2cccc(Br)c2)C1 (single isomer, unassigned) [Compound 233]												Test D disease control rating ([1]; 10 ppm test solution): 100%; Test E disease control rating ([2]; 10 ppm test solution): 0%; Test B disease control rating ([3]; 10 ppm test solution): 40%; Test F disease control rating ([5]; 10 ppm test solution): 100%; Test G disease control rating ([6]; 10 ppm test solution): 99%
OC(Cn1cncn1)(C1=NOC(c2ccc(Cl)cc2)C1)c1ccc(C(F)(F)F)cc1 (single isomer, unassigned) [Compound 106]							0	0	0	72	89	
CC(C)(C)CC1CC(C(O)(Cn2cncn2)c2ccc(Cl)cc2)=NO1 (single isomer, unassigned) [Compound 76]							0	0	0	0	89	
OC(Cn1cncn1)(C1=NOC(c2ccc(Oc3ccccc3)cc2)C1)c1ccc(Cl)cc1 (single isomer, unassigned) [Compound 143]							0	1	0	67	76	
